Measurements taken from patent US4264625A, “Pesticidal unsymmetrical bis-arylcarbamate sulfide compounds” (Union Carbide Corporation, priority 1978, dated 1981).

Key:
Format in all cases: in vivo
[1] = tested on: bean aphid (Aphis fabae Scop.); assay: Bean Aphid Foliage Spray Test; parameters: key: A: excellent control; B: partial control; C: no control; conditions: 500 ppm foliage spray, 24 hours, mortality rating
Method: (§1) Suspensions of the test compounds were prepared by dissolving one gram of compound in 50 milliliters of acetone in which had been dissolved 0.1 gram (10 percent of the weight of compound) of an alkylphenoxy polyethoxyethanol surfactant, as an emulsifying or dispersing agent. The resulting solution was mixed into 150 milliliters of water to give roughly 200 milliliters of a suspension containing the compound in finely divided form. The thus-prepared stock suspension contained 0.5 percent by weight of compound. The test concentrations in parts per million by weight employed in the tests described hereinbelow were obtained by appropriate dilutions of the stock suspension with water. The test procedures were as follows:
Bean Aphid Foliage Spray Test
Adults and nymphal stages of the bean aphid (Aphis fabae Scop.) reared on potted dwarf nasturtium plants at 65°-70° F. and 50-70 percent relative humidity, constituted the test insects. For testing purposes, the number of aphids per pot was standardized to 100-150 by trimming plants containing excess aphids.
The test compounds were formulated by diluting the stock suspension with water to give a suspension containing 500 parts of test compound per million parts of final formulation.
The potted plants (one pot per compound tested) infested with 100-150 aphids, were placed on a revolving turntable and sprayed with 100-110 milliliters of test compound formulation by use of a DeVilbiss spray gun set at 40 psig. air pressure. This application, which lasted 25 seconds, was sufficient to wet the plants to run-off. As a control, 100-110 milliliters of a water-acetone-emulsifier solution containing no test compound were also sprayed on infested plants. After spraying, the pots were placed on their sides on a sheet of white standard mimeograph paper which had been previously ruled to facilitate counting. Temperature and humidity in the test room during the 24 hour holding period were 65°-70° F. and 50-70 percent, respectively. Aphids which fell onto the paper and were unable to remain standing after being uprighted were considered dead. Aphids remaining on the plants were observed closely for movement and those which were unable to move the length of the body upon stimulation by prodding were considered dead. Percent mortality was recorded for various concentration levels.
(§2) In these tests the pesticidal activity of the compounds against aphid, mite, Southern Armyworm, Bean Beetle and house fly was rated as follows: […]

[2] = tested on: Mexican bean beetle (Epilachna varivestis, Muls.); assay: Mexican Bean Beetle Leaf Spray Test; parameters: key: A: excellent control; B: partial control; C: no control; conditions: 500 ppm leaf spray, fourth instar larvae, three days, mortality rating
Method: as §1
Mexican Bean Beetle Leaf Spray Test
Fourth instar larvae of the Mexican bean beetle (Epilachna varivestis, Muls.), reared on Tendergreen bean plants at a temperature of 80°±5° F. and 50±5 percent relative humidity, were the test insects.
The test compounds were formulated by diluting the stock suspension with water to give a suspension containing 500 parts of test compound per million parts of final formulation. Potted Tendergreen bean plants of standard height and age were placed on a revolving turntable and sprayed with 100-110 milliliters of test compound formulation by use of a DeVilbiss spray gun set at 10 psig air pressure. This application, which lasted 25 seconds, was sufficient to wet plants to run-off. As a control, 100-110 milliliters of a water-acetone-emulsifier solution containing no test compound were also sprayed on infested plants. When dry, the paired leaves were separated and each was placed in a 9 centimeter Petri dish lined with moistened filter paper. Five randomly selected larvae were introduced into each dish, and the dishes were closed. The closed dishes were labeled and held at a temperature of 80°±5° F. for three days. Although the larvae could easily consume the leaf within 24 to 48 hours, no more food was added. Larvae which were unable to move the length of the body, even upon stimulation, were considered dead.
as §2

[3] = tested on: Tomato; conditions: 2500 ppm spray, ten days, rating 1-5
Method: (§3) POST-EMERGENT HERBICIDAL TEST
(§4) Experiments were also conducted to determine the phytotoxicity of representative compositions with respect to healthy fresh plants. Solutions of the compounds were prepared as described above to provide a concentration of 2500 parts per million of the test compound. The test plants were sprayed in accordance with the procedure described above for the Mite Foliage Spray Test so as to deliver approximately 100 milliliters of test solution to the leaves of each plant tested. The sprayed plants and controls were set aside for approximately one hour to allow the solutions to dry and were then placed in the greenhouse. After ten days the plants were visually inspected to determine the extent of foliage injury. A rating of 1 indicates no perceptible injury; 5 indicates the plant was dead and ratings of 2, 3 and 4 indicate intermediate degrees of injury based upon the number and extent to which leaves were injured.

[4] = tested on: Cotton; conditions: 2500 ppm spray, ten days, rating 1-5
Method: as §3, §4

[5] = tested on: Corn; conditions: 2500 ppm spray, ten days, rating 1-5
Method: as §3, §4

[6] = tested on: Soybean; conditions: 2500 ppm spray, ten days, rating 1-5
Method: as §3, §4

[7] = tested on: Bean; conditions: 2500 ppm spray, ten days, rating 1-5
Method: as §3, §4

[8] = tested on: southern armyworm (Prodenia eridania, (Cram.)); assay: Southern Armyworm Leaf Spray Test; parameters: key: A: excellent control; B: partial control; C: no control; conditions: 500 ppm leaf spray, larvae, three days, mortality rating
Method: as §1
Southern Armyworm Leaf Spray Test
Larvae of the southern armyworm (Prodenia eridania, (Cram.)), reared on Tendergreen bean plants at a temperature of 80°±5° F. and a relative humidity of 50±5 percent, constituted the test insects.
The test compounds were formulated by diluting the stock suspension with water to give a suspension containing 500 parts of test compound per million parts of final formulation. Potted Tendergreen bean plants of standard height and age were placed on a revolving turntable and sprayed with 100-110 milliliters of test compound formulation by use of a DeVilbiss spray gun set at 10 psig air pressure. This application, which lasted 25 seconds, was sufficient to wet plants to run-off. As a control, 100-110 milliliters of a water-acetone-emulsifier solution containing no test compound were also sprayed on infested plants. When dry, the paired leaves were separated and each one was placed in a 9 centimeter Petri dish lined with moistened filter paper. Five randomly selected larvae were introduced into each dish and the dishes were closed. The closed dishes were labeled and held at 80°-85° F. for three days. Although the larvae could easily consume the whole leaf within twenty-four hours, no more food was added. Larvae which were unable to move the length of the body, even upon stimulation by prodding, were considered dead. Percent mortality was recorded for various concentration levels.
as §2

[9] = tested on: two-spotted mite (Tetranychus urticae Koch); assay: Mite Foliage Spray Test; parameters: key: A: excellent control; B: partial control; C: no control; conditions: 500 ppm foliage spray, six days, mortality rating
Method: as §1
Adults and nymphal stages of the two-spotted mite (Tetranychus urticae Koch), reared on Tendergreen bean plants at 80±5 percent relative humidity, were the test organisms. Infested leaves from a stock culture were placed on the primary leaves of two bean plants six to eight inches in height, growing in a two-and-a-half inch clay pot. 150-200 Mites, a sufficient number for testing, transferred from the excised leaves to the fresh plants in a period of twenty four hours. Following the twenty four hour transfer period, the excised leaves were removed from the infested plants. The test compounds were formulated by diluting the stock suspension with water to give a suspension containing 500 parts of test compound per million parts of final formulation. The potted plants (one pot per compound) were placed on a revolving turntable and sprayed with 100-110 milliliters of test compound formulation by use of a DeVilbiss spray gun set at 40 psig. air pressure. This application, which lasted 25 seconds, was sufficient to wet the plants to run-off. As a control, 100-110 milliliters of a water solution containing acetone and emulsifier in the same concentrations as the test compound formulation, but containing no test compound, were also sprayed on infested plants. The sprayed plants were held at 80±5 percent relative humidity for six days, after which a mortality count of motile forms was made. Microscopic examination for motile forms was made on the leaves of the test plants. Any individual which was capable of locomotion upon prodding was considered living.
as §2

[10] = tested on: house flies (Musca domestica, L.); assay: Fly Bait Test; parameters: key: A: excellent control; B: partial control; C: no control; conditions: 500 ppm in sugar-solution bait, 24 hours, mortality rating
Method: as §1
Four to six day old adult house flies (Musca domestica, L.) reared according to the specifications of the Chemical Specialties Manufacturing Association (Blue Book, McNair-Dorland Co., N.Y. 1954; pages 243-244, 261) under controlled conditions of 80°±5° F. and 50±5 percent relative humidity, were the test insects. The flies were immobilized by anesthetizing with carbon dioxide and twenty five immobilized individuals, males and females, were transferred to a cage consisting of a standard food strainer about five inches in diameter which was inverted over a wrapping-paper-covered surface. The test compounds were formulated by diluting the stock suspension with a 10 percent (by weight) sugar solution to give a suspension containing 500 parts of test compound per million parts of final formulation, by weight. Ten milliliters of the test formulation were added to a souffle cup containing a one-inch square of an absorbent cotton pad. This bait cup was introduced and centered on the blotting paper under the food strainer prior to admitting the anesthetized flies. The caged flies were allowed to feed on the bait for twenty four hours, at a temperature of 80°±5° F. and the relative humidity of 50±5 percent.
as §2

Q: With `CN(SN(C)C(=O)Oc1ccc(Oc2ccccc2)cc1)C(=O)Oc1ccc(Oc2ccccc2)cc1` as the molecule, how does the “Pesticidal Activity, Aphid” value [1] read?
A: Its value is “C”.

Q: What about the “Pesticidal Activity, Mexican Bean Beetle” value [2] of the same molecule?
A: Its value is “C”.

Q: And the “Phytotoxicity, Tomato” value [3]?
A: The value was 1.

Q: And the “Phytotoxicity, Cotton” value [4]?
A: The value was 1.

Q: And the “Phytotoxicity, Corn” value [5]?
A: Its value is 1.

Q: And the “Phytotoxicity, Soybean” value [6]?
A: Its value is 1.

Q: What about the “Phytotoxicity, Bean” value [7] of the same molecule?
A: The value was 1.

Q: What about the “Pesticidal Activity, Southern Armyworm” value [8] of the same molecule?
A: The value was “C”.

Q: And the “Pesticidal Activity, Mite” value [9]?
A: The value was “C”.

Q: What about the “Pesticidal Activity, House fly” value [10] of the same molecule?
A: Its value is “C”.
